Data set [1] has as its system HeLa. The data set is described as follows: Antiproliferative activity against human HeLa cells at 50 ug/ml after 24 hrs by BrdUrd incorporation assay. The class given is functional. The note with it: read-out: GI.
For data set [2], the system named is HeLa. Briefly: Antiproliferative activity against human HeLa cells after 72 hrs by BrdUrd incorporation assay. The data set is classed as functional, cell-based.
Data set [3] has as its system HeLa. The data set is described as follows: Antiproliferative activity against human HeLa cells at 50 ug/ml after 48 hrs by BrdUrd incorporation assay. The class given is functional. The note with it: read-out: GI.
The test system of data set [4] is T47D. The data set is described as follows: Antiproliferative activity against human T47D cells after 24 hrs by BrdUrd incorporation assay. The data set is classed as functional, cell-based.
Data set [5] relates to HeLa. Briefly: Antiproliferative activity against human HeLa cells at 50 ug/ml after 72 hrs by BrdUrd incorporation assay. The data set is classed as functional. Conditions: read-out: GI.
The test system of data set [6] is TOV112D. The data set is described as follows: Antiproliferative activity against human TOV112D cells after 24 hrs by BrdUrd incorporation assay. The class given is functional, cell-based.
Data set [7] relates to T47D. The data set is described as follows: Antiproliferative activity against human T47D cells at 50 ug/ml after 72 hrs by BrdUrd incorporation assay. The note with it: read-out: GI. The data set is classed as functional.
The test system of data set [8] is T47D. Briefly: Antiproliferative activity against human T47D cells at 50 ug/ml after 48 hrs by BrdUrd incorporation assay. The data set is classed as functional. The note with it: read-out: GI.
The test system of data set [9] is HeLa. The data set is described as follows: Antiproliferative activity against human HeLa cells after 24 hrs by BrdUrd incorporation assay. The data set is classed as functional, cell-based.
In data set [10] the test system is HeLa. The data set is described as follows: Antiproliferative activity against human HeLa cells after 48 hrs by BrdUrd incorporation assay. The class given is functional, cell-based.
Data set [11] relates to A549. Briefly: Antiproliferative activity against human A549 cells after 72 hrs by BrdUrd incorporation assay. The class given is functional, cell-based. Conditions: A549, 72 h.
For data set [12], the system named is A549. Briefly: Antiproliferative activity against human A549 cells after 24 hrs by BrdUrd incorporation assay. The class given is functional, cell-based. Conditions: A549, 24 h.
Data set [13] relates to TOV112D. The data set is described as follows: Antiproliferative activity against human TOV112D cells after 48 hrs by BrdUrd incorporation assay. The class given is functional, cell-based.
The test system of data set [14] is T47D. The data set is described as follows: Antiproliferative activity against human T47D cells at 50 ug/ml after 24 hrs by BrdUrd incorporation assay. The class given is functional. Conditions: read-out: GI.
For data set [15], the system named is Vero. Briefly: Antiproliferative activity against African green monkey Vero cells after 48 hrs by BrdUrd incorporation assay. The note with it: Chlorocebus sabaeus. The class given is cell-based.
In data set [16] the test system is A549. The data set is described as follows: Antiproliferative activity against human A549 cells at 50 ug/ml after 48 hrs by BrdUrd incorporation assay. The data set is classed as functional. Conditions: A549, 48 h, read-out: GI.
In data set [17] the test system is TOV112D. The data set is described as follows: Antiproliferative activity against human TOV112D cells at 50 ug/ml after 72 hrs by BrdUrd incorporation assay. The class given is functional. Conditions: read-out: GI.
The nature of data set [18]: Antiproliferative activity against African green monkey Vero cells at 50 ug/ml after 48 hrs by BrdUrd incorporation assay. The class given is cell-based. Conditions: chlorocebus sabaeus, read-out: GI.
For data set [19], the system named is Vero. Briefly: Antiproliferative activity against African green monkey Vero cells at 50 ug/ml after 24 hrs by BrdUrd incorporation assay. The data set is classed as cell-based. Conditions: chlorocebus sabaeus.
The subject of data set [20] is A549. Briefly: Antiproliferative activity against human A549 cells after 48 hrs by BrdUrd incorporation assay. The class given is functional, cell-based. The note with it: A549, 48 h.
Data set [21] has as its system TOV112D. Briefly: Antiproliferative activity against human TOV112D cells after 72 hrs by BrdUrd incorporation assay. The data set is classed as functional, cell-based.
Data set [22] has as its system TOV112D. Briefly: Antiproliferative activity against human TOV112D cells at 50 ug/ml after 48 hrs by BrdUrd incorporation assay. The data set is classed as functional. The note with it: read-out: GI.
Data set [23] has as its system A549. The data set is described as follows: Antiproliferative activity against human A549 cells at 50 ug/ml after 24 hrs by BrdUrd incorporation assay. The class given is functional. Conditions: A549, 24 h, read-out: GI.
For data set [24], the system named is A549. Briefly: Antiproliferative activity against human A549 cells at 50 ug/ml after 72 hrs by BrdUrd incorporation assay. The data set is classed as functional. The note with it: A549, 72 h, read-out: GI.
Data set [25] relates to T47D. The data set is described as follows: Antiproliferative activity against human T47D cells after 48 hrs by BrdUrd incorporation assay. The class given is functional, cell-based.
A short description of data set [26]: Antiproliferative activity against African green monkey Vero cells at 50 ug/ml after 72 hrs by BrdUrd incorporation assay. The note with it: chlorocebus sabaeus, read-out: GI. The class given is cell-based.
Data set [27] concerns Vero. The data set is described as follows: Antiproliferative activity against African green monkey Vero cells after 72 hrs by BrdUrd incorporation assay. Conditions: Chlorocebus sabaeus. The class given is cell-based.
For data set [28], the system named is T47D. Briefly: Antiproliferative activity against human T47D cells after 72 hrs by BrdUrd incorporation assay. The class given is functional, cell-based.
The test system of data set [29] is Vero. The data set is described as follows: Antiproliferative activity against African green monkey Vero cells after 24 hrs by BrdUrd incorporation assay. The class given is cell-based. Conditions: chlorocebus sabaeus.
Data set [30] deals with TOV112D. Briefly: Antiproliferative activity against human TOV112D cells at 50 ug/ml after 24 hrs by BrdUrd incorporation assay. The data set is classed as functional. Conditions: read-out: GI.

The values below come from ChEMBL document CHEMBL3596165, “Synthesis, structure elucidation and identification of antiproliferative activities of a novel class of thiophene bioisosteres bearing the privileged 7,8-dihydroimidazo[2,1-c][1,2,4]triazin-4(6H)-one scaffold” (Bioorg Med Chem, 2015).

In the case of `Cc1ccc(N2CCn3c2nnc(-c2cccs2)c3=O)cc1`, the inhibition of growth at 50 µg/mL came to 80% with HeLa [1]; 100% in the data set on HeLa [3]; 100% with HeLa [5]; 100% in the data set on T47D [7]; 100% with T47D [8]; 95% in the data set with T47D [14]. Further, the inhibition of growth at 50 µg/mL with A549 [16] came out at 95%; in the data set with TOV112D [17], 100%; in the data set on TOV112D [22], 100%; with A549 [23], 90%; with A549 [24], 100%; with TOV112D [30], 90%. Further, the half-maximal inhibitory concentration (IC50) is 80 µM with HeLa [2]; 90 µM with T47D [4]; 90 µM in the data set on TOV112D [6]; 100 µM in the data set on HeLa [9]; 80 µM in the data set with HeLa [10]; 80 µM in the data set on A549 [11]. Further, the IC50 is 90 µM in the data set with A549 [12]; 80 µM with TOV112D [13]; 80 µM in the data set on Vero [15]; 90 µM in the data set on A549 [20]; 80 µM in the data set on TOV112D [21]; 80 µM in the data set on T47D [25]. The figures for the 50% inhibitory concentration (IC50) in the data set with Vero [27], in the data set on T47D [28] and in the data set with Vero [29] were 80 µM, 80 µM and 90 µM, respectively. Besides, the inhibition at 48 h, 50 ug/ml in data set [18] came out at 95%. For the same compound, in the data set with Vero [19], the “growth inhibition (GI)” value is 90%. Besides, in [26], the inhibition at 72 h, 50 ug/ml worked out at 100%.
On to `O=c1c(-c2cccs2)nnc2n1CCN2c1ccccc1`, for which the inhibition of growth at 50 µg/mL worked out at 70% in the data set with HeLa [1]; 100% with HeLa [3]; 100% with HeLa [5]; 100% in the data set with T47D [7]; 100% in the data set with T47D [8]; 95% with T47D [14]. The inhibition of growth at 50 µg/mL in the data set with A549 [16] is 90%; with TOV112D [17], 100%; in the data set on TOV112D [22], 100%; with A549 [23] it was 80%; with A549 [24], 100%; in the data set with TOV112D [30], 90%. Further, the IC50 was determined as 80 µM in the data set with HeLa [2]; 90 µM in the data set on T47D [4]; 90 µM in the data set with TOV112D [6]; 120 µM with HeLa [9]; 90 µM with HeLa [10]; 80 µM with A549 [11]. Also, the IC50 with A549 [12] came out at 110 µM; with TOV112D [13], 80 µM; in the data set on Vero [15], 110 µM; in the data set with A549 [20], 90 µM; in the data set with TOV112D [21] it was 80 µM; in the data set with T47D [25], 90 µM. The values for the IC50 in the data set on Vero [27], in the data set with T47D [28] and in the data set on Vero [29] were 90 µM, 80 µM and 170 µM, respectively. For the same compound, the inhibition at 48 h, 50 ug/ml in data set [18] worked out at 75%. Further, the “growth inhibition (GI)” value in the data set on Vero [19] worked out at 50%. For the same compound, the inhibition at 72 h, 50 ug/ml in data set [26] is 90%.
For the compound `Cc1ccccc1N1CCn2c1nnc(-c1cccs1)c2=O`, the inhibition of growth at 50 µg/mL is 45% in the data set on HeLa [1]; 75% in the data set on HeLa [3]; 90% in the data set on HeLa [5]; 100% with T47D [7]; 90% in the data set on T47D [8]; 80% with T47D [14]. The inhibition of growth at 50 µg/mL in the data set with A549 [16] was 95%; in the data set on TOV112D [17] it was 100%; in the data set on TOV112D [22], 100%; in the data set on A549 [23], 80%; with A549 [24] it was 100%; with TOV112D [30], 90%. Further, the IC50 in the data set with HeLa [2] is 90 µM; in the data set with T47D [4] it was 100 µM; in the data set with TOV112D [6], 90 µM; in the data set on HeLa [9] it was over 160 µM; in the data set on HeLa [10], 110 µM; in the data set with A549 [11] it was 80 µM. Besides, the 50% inhibitory concentration (IC50) is 100 µM in the data set on A549 [12]; 80 µM with TOV112D [13]; 160 µM in the data set on Vero [15]; 80 µM with A549 [20]; 80 µM in the data set on TOV112D [21]; 90 µM with T47D [25]. Further, the IC50 in the data set on Vero [27] was 90 µM; in the data set on T47D [28] it was 80 µM; with Vero [29], over 160 µM. In addition, the inhibition at 48 h, 50 ug/ml in data set [18] came to 50%. In the data set with Vero [19], the “growth inhibition (GI)” value was found to be 25%. In addition, the inhibition at 72 h, 50 ug/ml in data set [26] is 90%.
Consider `Cc1ccc(N2CCn3c2nnc(-c2ccco2)c3=O)cc1`, for which the inhibition of growth at 50 µg/mL in the data set with HeLa [1] turned out to be 50%; with HeLa [3], 50%; in the data set on HeLa [5] it was 80%; with T47D [7], 80%; with T47D [8], 60%; in the data set with T47D [14], 40%.
For the compound `Cc1ccccc1N1CCn2c1nnc(-c1ccco1)c2=O`, the inhibition of growth at 50 µg/mL in the data set with HeLa [1] was 25%; in the data set with HeLa [3], 25%; in the data set with HeLa [5], 50%; in the data set on T47D [7], 75%; in the data set on T47D [8], 50%; in the data set on T47D [14] it was 25%.
Turning to `O=c1c(-c2ccco2)nnc2n1CCN2c1ccc(Cl)cc1`, the inhibition of growth at 50 µg/mL with HeLa [1] worked out at 50%; with HeLa [3], 75%; with HeLa [5], 90%; in the data set on T47D [7], 15%; with T47D [8] it was 15%; in the data set with T47D [14] it was 0%.

By IC50 is commonly meant the concentration that inhibits the measured activity by half.
